Measurements published in US8455440B2, “Combination anticoagulant therapy with a compound that acts as a factor Xa inhibitor” (Millennium Pharmaceuticals, Inc., priority 2007, dated 2013).

How the values were obtained:
[1] = Plasma concentrations of Compound A in telemeterized dogs; assay type: in vivo; conditions: combination with verapamil
Text: It is further contemplated that in patients being treated for atrial fibrillation, blood pressure lowering drugs such as beta blockers or calcium channel blockers and Compound A may be used concomitantly. Drugs like verapamil are known inhibitors of p-glycoprotein function. […] See Example 10.
The study was designed to evaluate the in vivo effect of Compound A upon co-administration with a selective L type calcium channel blocker, verapamil. Three beagle dogs were implanted with Data Science Telemetry transmitters (DSI model # TL11M2-D70-PCT) to measure conscious (un-anaesthetized) and unrestrained systolic and diastolic blood pressure following oral dosing with Compound A, verapamil or a combination of the two. The study design was a three way crossover with one week between doses to ensure complete elimination of residual agents from the dogs' circulatory system. Data was analyzed for a twelve hour period, starting with one hour pre-oral dosing of Compound A and ending with eleven hours post-dosing. Data acquisition and analysis was performed using LDS Life Science Suite Ponemah P3 plus V 4.20 software with results reported as 10 minute averages for each animal.

factor Xa = molecular target: T1, factor Xa (Bos taurus, UniProt P00743); experiment: Anti-factor Xa unit assay; assay type: biochemical, human; conditions: total knee replacement patients, 15 mg or 40 mg oral twice a day
T1 construct: purchased Diapharma COATEST LMW Heparin
T1 sequence (P00743 234-492 limits assumed): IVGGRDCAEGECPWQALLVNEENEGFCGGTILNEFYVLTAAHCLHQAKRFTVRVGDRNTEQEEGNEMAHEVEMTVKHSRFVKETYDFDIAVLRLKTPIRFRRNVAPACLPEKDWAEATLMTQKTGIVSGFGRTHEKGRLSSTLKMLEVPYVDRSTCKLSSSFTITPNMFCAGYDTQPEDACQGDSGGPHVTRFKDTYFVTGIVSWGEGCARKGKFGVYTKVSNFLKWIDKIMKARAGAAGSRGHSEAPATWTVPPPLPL
T1 sequence (P00743 41-180 partner limits assumed): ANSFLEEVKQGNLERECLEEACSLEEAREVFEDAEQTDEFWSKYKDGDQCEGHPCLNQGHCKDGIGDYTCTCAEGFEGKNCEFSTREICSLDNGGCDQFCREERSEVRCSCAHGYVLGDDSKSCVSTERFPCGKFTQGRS
Procedure: The anti-factor Xa (anti-fXa) assay was adapted from a commercial kit (Diapharma COATEST LMW Heparin) and modified to a 96-well format. A low molecular weight heparin, dalteparin, included in the kit was used to construct a standard curve according to the manufacture's instruction using pooled platelets poor plasma. All samples and standards were assayed in duplicate. The limit of quantitation was 0.05 U/mL and results below 0.05 U/mL were reported as below the limit of quantitation. The upper limit of measurement for the plate assay was 1.0 U/mL and samples with anti-factor Xa units higher than 1.0 U/mL were re-assayed after dilution. The coefficient of variation (CV) for both standards and clinical samples were 10%.

thrombin generation = experiment: Thrombin generation assay in platelet rich plasma (PRP); assay type: biochemical, human
Procedure: PRP and PPP were prepared by spinning the anticoagulated blood at ˜100×g or 1000×g for 20 minutes, respectively, at room temperature. Platelet counts in PRP were adjusted with homologous PPP to about 200,000 platelets/μL. For thrombin generation in 100 μL reaction mixture, 75 μL PRP was first mixed with CaCl2, convulxin, and Z-Gly-Gly-Arg-aminomethylcoumarin (Z-GGR-AMC, a thrombin fluorogenic substrate) for 3 minutes at 37° C., followed by adding tissue factor (Innovin, Dade Behring) to initiate the generation of thrombin. A typical reaction mixture contained 15 mM Ca^2+, 0.1 μg/mL convulxin, 100 μM Z-GGR-AMC, and 0.1 nM TF (tissue factor) (Innovin). Thrombin formation was monitored continuously at 37° C. by a fluorometric plate reader (Molecular Devices) measuring the relative fluorescence units (RFU). Inhibitors were pre-incubated with plasma for 20 minutes at room temperature before adding CaCl2 and convulxin.
Non-ASA represents result from donors free of aspirin. ASA represents results from donors taken aspirin for at least three days. % Inhibition was calculated by normalization of mean RFU (n=5) to Non-ASA at 0 nM Compound A.

Interleukin 8 = experiment: Ex vivo cytokine release in human whole blood: interleukin 8; assay type: cell-based
Procedure: An ex vivo assay system of human cytokine release was used to test whether inhibition of factor Xa should augment the effect of reduction of inflammation elicited by standard anti-inflammatory drugs, such as aspirin.
At the end of the activation period, blood samples were centrifuged at 13,000 rpm (15,000 g) for 5 min in an Eppendorf 5415G centrifuge. Plasma was removed, treated with protease inhibitor cocktail (Roche) and stored frozen at −80° C. Cytokines released from the blood cells were quantitated in a Multiplexed Biomarker Immunoassay for Luminex Instrumentation (Millipore USA).

p-glycoprotein = p-glycoprotein (Homo sapiens, UniProt P08183); experiment: In vitro evaluations of p-glycoprotein substrate; assay type: in vitro ADME
Chain of p-glycoprotein (P08183 whole entry): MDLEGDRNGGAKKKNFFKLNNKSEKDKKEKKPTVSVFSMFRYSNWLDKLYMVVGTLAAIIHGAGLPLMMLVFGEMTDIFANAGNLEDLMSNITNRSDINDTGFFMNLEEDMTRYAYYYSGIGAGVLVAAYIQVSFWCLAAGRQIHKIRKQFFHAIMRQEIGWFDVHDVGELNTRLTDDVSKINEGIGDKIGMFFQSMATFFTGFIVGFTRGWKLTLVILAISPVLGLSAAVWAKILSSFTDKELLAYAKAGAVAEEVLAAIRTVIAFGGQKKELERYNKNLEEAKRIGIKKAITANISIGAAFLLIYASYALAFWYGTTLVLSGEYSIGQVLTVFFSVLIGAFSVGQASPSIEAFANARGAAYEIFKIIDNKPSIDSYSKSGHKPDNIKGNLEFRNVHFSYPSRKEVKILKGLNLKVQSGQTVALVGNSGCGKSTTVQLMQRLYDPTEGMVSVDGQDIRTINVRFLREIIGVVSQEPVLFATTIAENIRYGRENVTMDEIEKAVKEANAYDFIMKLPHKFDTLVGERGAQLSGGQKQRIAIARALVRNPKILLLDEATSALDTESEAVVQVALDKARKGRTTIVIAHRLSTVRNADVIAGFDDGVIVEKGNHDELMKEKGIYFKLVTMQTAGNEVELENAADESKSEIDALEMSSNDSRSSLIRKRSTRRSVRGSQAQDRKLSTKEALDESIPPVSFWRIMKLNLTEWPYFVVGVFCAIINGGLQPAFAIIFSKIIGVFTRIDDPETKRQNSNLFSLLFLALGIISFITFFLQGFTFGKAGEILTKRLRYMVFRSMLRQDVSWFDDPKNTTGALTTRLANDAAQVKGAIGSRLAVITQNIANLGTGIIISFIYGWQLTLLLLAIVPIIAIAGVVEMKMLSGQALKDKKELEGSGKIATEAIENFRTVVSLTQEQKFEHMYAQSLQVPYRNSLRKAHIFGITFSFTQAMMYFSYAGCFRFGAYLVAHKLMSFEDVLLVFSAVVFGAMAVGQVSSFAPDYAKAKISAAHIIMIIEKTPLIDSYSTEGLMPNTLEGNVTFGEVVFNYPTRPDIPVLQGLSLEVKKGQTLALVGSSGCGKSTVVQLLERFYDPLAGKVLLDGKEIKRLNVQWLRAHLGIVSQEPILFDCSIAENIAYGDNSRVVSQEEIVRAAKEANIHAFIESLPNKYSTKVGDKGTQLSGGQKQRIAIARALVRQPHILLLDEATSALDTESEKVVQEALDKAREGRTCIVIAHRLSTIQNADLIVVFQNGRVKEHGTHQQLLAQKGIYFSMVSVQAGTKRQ

[2] = test system: clotting times (prothrombin time, PT and activated partial thromboplastin times, aPTT); experiment: Ex vivo clotting times (PT, aPTT) in the rat thrombosis model
Procedure: (§1) In this experiment, the ability of Compound A to maintain vessel patency under arterial flow conditions in ferric chloride induced thrombosis in rat carotid artery is compared to that achieved by clopidogrel. Compound A was administered by intravenous infusions and clopidogrel was dosed orally for three days. Ex vivo platelet aggregation induced by 10 μM ADP and clotting times (prothrombin time, PT and activated partial thromboplastin times, aPTT) were measured over the experimental time course (90 min) in all animals.
as §1, with “The combination effect of an anticoagulant and anti-platelet agent, aspirin, was investigated in an in vivo model of thrombosis. […] In” for “In”, “aspirin.” for “clopidogrel.”, “aspirin” for “clopidogrel”, “administered as an intravenous bolus approximately 30 min prior to the start of the experiment.” for “dosed orally for three days.”, “μg/mL of collagen” for “μM ADP”

human whole blood = experiment: Real time perfusion chamber: whole blood perfused over collagen and tissue factor coated surface; assay type: cell-based; conditions: shear rate 300 s^−1, five donors
Procedure: After the perfusion, the thrombotic activity was quantified by measurement of labeled fibrin produced as a result of fibrinogen cleavage during the activation of platelets and the blood coagulation system. For this series of experiments in five healthy human volunteers, blood was obtained by venipuncture and treated with 2.4 μM eptifibatide. The dose of eptifibatide corresponds to the plasma concentration attained by therapeutic concentrations of the GPIIb/IIIa inhibitor.

[3] = Compound A 0.03 μM, aspirin 3 mg/kg, or both

For COc1ccc(NC(=O)c2ccc(C(=N)N(C)C)cc2)c(C(=O)Nc2ccc(Cl)cn2)c1 [Compound A, [2-({4-[(dimethylamino)iminomethyl]phenyl}carbonylamino)-5-methoxyphenyl]-N-(5-chloro(2-pyridyl))carboxamide], the “plasma concentrations of Compound A, dual treatment versus single treatment” value [1] was “about two times higher”, the “effect on anti-factor Xa levels” value (factor Xa) was “dose- and concentration-dependent effect” and the “% Inhibition of thrombin generation” value (thrombin generation; ASA donors, 7.8125 nM Compound A, normalized to Non-ASA at 0 nM) was 24.6%. The “% Inhibition of thrombin generation” value (thrombin generation; ASA donors, 15.625 nM Compound A, normalized to Non-ASA at 0 nM) was 26.9%, the “% Inhibition of thrombin generation” value (thrombin generation; ASA donors, 31.25 nM Compound A, normalized to Non-ASA at 0 nM) was 33.4% and the “% Inhibition of thrombin generation” value (thrombin generation; ASA donors, 62.5 nM Compound A, normalized to Non-ASA at 0 nM) was 46.0%. For the same compound, the “% Inhibition of thrombin generation” value (thrombin generation; ASA donors, 125 nM Compound A, normalized to Non-ASA at 0 nM) was 64.7%, the “% Inhibition of thrombin generation” value (thrombin generation; ASA donors, 250 nM Compound A, normalized to Non-ASA at 0 nM) was 82.5% and the “% Inhibition of thrombin generation” value (thrombin generation; ASA donors, 500 nM Compound A, normalized to Non-ASA at 0 nM) was 94.6%. The “% Inhibition of thrombin generation” value (thrombin generation; Non-ASA donors, 7.8125 nM Compound A) was 3.2%, the “% Inhibition of thrombin generation” value (thrombin generation; Non-ASA donors, 15.625 nM Compound A) was 5.1% and the “% Inhibition of thrombin generation” value (thrombin generation; Non-ASA donors, 31.25 nM Compound A) was 12.2%. The “% Inhibition of thrombin generation” value (thrombin generation; Non-ASA donors, 62.5 nM Compound A) was 25.2%, the “% Inhibition of thrombin generation” value (thrombin generation; Non-ASA donors, 125 nM Compound A) was 55.1% and the “% Inhibition of thrombin generation” value (thrombin generation; Non-ASA donors, 250 nM Compound A) was 81.1%. For the same compound, the “% Inhibition of thrombin generation” value (thrombin generation; Non-ASA donors, 500 nM Compound A) was 96.0%, the “reduction in the levels of released interleukin 8” value (Interleukin 8; Compound A added to blood samples from donors under aspirin therapy) was 44% and the “further reduction of interleukin 8” value (Interleukin 8; addition of Compound A to whole blood of aspirin treated donors prior to collagen activation) was 18%. The p-glycoprotein substrate (p-glycoprotein) was “substrate of p-glycoprotein”, the PT ratio ([2]; 0.03 μM Compound A) was 1.08 and the PT ratio ([2]; 0.1 μM Compound A) was 1.19. The PT ratio ([2]; 0.3 μM Compound A) was 1.33, the “APTT Ratio” value [2, 3] was 1.08 and the “PT ratio” value [2, 3] was 1.07. For the same compound, the “change in PT” value ([2]; therapeutic dose of the single agent) was 33%, the “Mean Fluorescence” value (human whole blood; 10 nM Compound A + 2.4 μM eptifibatide) was 107.7 and the “Mean Fluorescence” value (human whole blood; 25 nM Compound A + 2.4 μM eptifibatide) was 85.0. The “Mean Fluorescence” value (human whole blood; 50 nM Compound A + 2.4 μM eptifibatide) was 64.5, the “Mean Fluorescence” value (human whole blood; 75 nM Compound A + 2.4 μM eptifibatide) was 34.7 and the “Mean Fluorescence” value (human whole blood; 100 nM Compound A + 2.4 μM eptifibatide) was 33.0.
